Experimental data: patent US12570615B2, “Quinazolinone derivatives” (Hoffmann-La Roche Inc., priority 2021, dated 2026)
Structures can show the parent of a compound that is named as a salt.

Assays:
[1] = test system: P-ERK (ERK phospho-T202/Y204) in HCT116 cells expressing WT BRAF; experiment: HTRF assay for P-ERK determination in HCT116 cells (BRAF activation); type: cell-based; details: Homo sapiens, HCT-116, drug incubation 1 hour, concentration giving 50% of the maximum activation achieved by Dabrafenib
Text: (§1) A375 is a cellular cancer model expressing V600E mutated BRAF and HCT116 a cellular cancer model expressing WT BRAF. First generation BRAF inhibitors such as e.g. dabrafenib induce a paradox effect on tumour cells in that they inhibit the growth of V600E mutated BRAF cells (such as e.g. A375), while they activate growth in WT BRAF cells (such as e.g. HCT 116). ERK 1,2 phosphorylation (terminal member of the phosphorylation cascade of the MAPK pathway) is hereafter reported as main readout for the activation status of the MAPK pathway. DMEM no-phenol red medium supplemented with L-glutamine was purchased from (Thermo Fisher Scientific). Fetal bovine serum (FBS) was purchased from VWR. Advanced ERK phospho-T202/Y204 kit—10,000 tests was purchased from Cisbio cat #64AERPEH. A375 (catalog #CRL-1619) and HCT116 (catalog #CCL-247) cells were originally obtained from American type Culture Collection (ATCC) and banked by the Roche repository. 384-Well microplates utilized were purchased from Greiner Bio-One, 384-well, (With Lid, HiBase, Low volume cat 784-080).
(§2) Prior to the assay, A375 and HCT116 cell lines are maintained in DMEM no-phenol red medium supplemented with 10% fetal bovine serum (FBS). Following compound treatment, P-ERK levels are determined by measuring FRET fluorescence signal induced by selective binding of 2 antibodies provided in the mentioned kit (Cisbio cat #64AERPEH) on ERK protein when phosphorylated at Thr202/Tyr204. Briefly, 8000 cells/well in 12 μl media/well are plated in the 384-well plate and left overnight in the incubator (at 37° C. with 5% CO2-humidified atmosphere), the following day the plate is treated in duplicate with test compounds, dabrafenib and PLX8394 (the latter two as controls) at the following final drug concentrations: 10 μM-3 μM 1 μM-0.3 μM-0.1 μM-0.03 μM-0, 01 μM-0.003 μM-0.001 μM, all wells are subjected to DMSO normalization and drug incubation occurs for 1 hour. Then, […] of a 4× lysis buffer supplied with the kit are added to the wells, the plate is then centrifuged for 30 second (3000 rpm) and incubated on a plate shaker for 1 h at rt.
(§3) At the end of the incubation 4 μL/well of advanced P-ERK antibody solution (prepared according to manufacturer's instruction) followed by 4 μL/well of criptate P-ERK antibody solution (prepared according to manufacturer's instruction) (Cisbio cat #64AERPEH) are added to test wells.
(§4) In order to allow proper data normalization control wells non drug treated reported in the following table are always included in each plate (according to manufacturer's instruction):
(§5) The plate is then centrifuged at 3000 rpm for 30 second, sealed to prevent evaporation and incubated overnight in the dark at room temperature.
(§6) The plate is then analyzed and fluorescence emission value collected through a Pherastast FSX (BMG Labtech) apparatus at […].
(§7) The obtained fluorescence values are processed according to the formula Ratio=[…]*10000 then the average of the ratio on the blank is subtracted to all values.
Data are normalized in the case of HCT116 cells (BRAF activation) considering the average of the ratio (blank subtracted) derived by DMSO only treated cells as 0% and by considering the average of the ratio (blank subtracted) derived by Dabrafenib treated cells at the concentration which provides the highest signal as 100%. Individual points are fitted with either sigmoidal or bell shape curves. The EC50 is the concentration at which activation equal to 50% of the maximum activation achieved by Dabrafenib is obtained.

[2] = test system: P-ERK (ERK phospho-T202/Y204) in A375 cells expressing V600E mutated BRAF; experiment: HTRF assay for P-ERK determination in A375 cells (BRAF inhibition); type: cell-based; details: Homo sapiens, A-375, P-ERK level, drug incubation 1 hour, DMSO = 100%, 10 μM Dabrafenib = 0%
Text: as §1, §2, §3, §4, §5, §6, §7
Data are normalized in the case of A375 cells (BRAF inhibition) considering the average of the ratio (blank subtracted) derived by DMSO only treated cells as 100% and by considering the average of the ratio (blank subtracted) derived by 10 μM Dabrafenib treated cells as 0%. Mean of the normalized points are fitted with sigmoidal curve and IC50 determined.

BRAF (V600E) = BRAF (V600E) (Homo sapiens, UniProt P15056, V600E); experiment: KD BRAF (V600E) (Table 1); type: binding
BRAF (wt) = BRAF (wt) (Homo sapiens, UniProt P15056); experiment: KD BRAF (wt) (Table 1); type: binding
Chain of BRAF (wt) (P15056 whole entry): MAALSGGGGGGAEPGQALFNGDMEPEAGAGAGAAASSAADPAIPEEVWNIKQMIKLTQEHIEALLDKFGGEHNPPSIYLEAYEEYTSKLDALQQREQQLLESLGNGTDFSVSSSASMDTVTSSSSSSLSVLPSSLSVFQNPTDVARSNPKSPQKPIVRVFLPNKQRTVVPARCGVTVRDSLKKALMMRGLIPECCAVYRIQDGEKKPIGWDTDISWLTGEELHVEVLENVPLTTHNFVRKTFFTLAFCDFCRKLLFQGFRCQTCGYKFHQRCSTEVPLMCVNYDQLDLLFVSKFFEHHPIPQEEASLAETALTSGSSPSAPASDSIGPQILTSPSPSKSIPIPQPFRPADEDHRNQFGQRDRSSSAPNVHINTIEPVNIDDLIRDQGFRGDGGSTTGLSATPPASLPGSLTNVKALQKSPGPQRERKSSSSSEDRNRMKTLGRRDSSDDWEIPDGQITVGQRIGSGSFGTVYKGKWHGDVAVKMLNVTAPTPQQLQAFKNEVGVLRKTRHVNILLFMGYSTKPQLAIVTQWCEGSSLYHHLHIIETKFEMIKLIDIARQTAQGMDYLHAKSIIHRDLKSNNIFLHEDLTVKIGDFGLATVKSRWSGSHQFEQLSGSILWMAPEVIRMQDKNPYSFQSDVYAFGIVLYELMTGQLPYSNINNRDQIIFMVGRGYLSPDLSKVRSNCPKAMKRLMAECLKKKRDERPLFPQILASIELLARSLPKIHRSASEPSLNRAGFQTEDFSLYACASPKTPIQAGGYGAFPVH

Chain of BRAF (V600E) (P15056 whole entry V600E): as the sequence (P15056 whole entry) above, with V600E counted along it

Structure (SMILES) | EC50 [1] | IC50 [2] | Kd (BRAF (V600E)) | Kd (BRAF (wt))
CCC(C)S(=O)(=O)Nc1ccc(F)c(Oc2ccc3ncn(CCCNC(=O)OC(C)(C)C)c(=O)c3c2)c1C#N (stereo not drawn) [Example 13, tert-butyl N-[3-[6-[2-cyano-6-fluoro-3-(sec-butylsulfonylamino)phenoxy]-4-oxo-quinazolin-3-yl]propyl]carbamate] | 2820 nM | 36.3 nM | 19.3 nM | 12.1 nM
CCN(C)S(=O)(=O)Nc1cccc(Nc2ccc3ncn(CCOCCOCCN)c(=O)c3c2)c1C#N [Example 38, 3-[2-[2-(2-aminoethoxy)ethoxy]ethyl]-6-[2-cyano-3-[[ethyl(methyl)sulfamoyl]amino]anilino]-4-oxo-quinazoline hydrochloride] | ≥ 10000 nM | 5740 nM | 443 nM | 174 nM
CCN(C)S(=O)(=O)Nc1cccc(Nc2ccc3ncn(CCOCCOCCNC(=O)OC(C)(C)C)c(=O)c3c2)c1C#N [Example 34, tert-butyl N-[2-[2-[2-[6-[2-cyano-3-[[ethyl(methyl)sulfamoyl]amino]anilino]-4-oxo-quinazolin-3-yl]ethoxy]ethoxy]ethyl]carbamate] | ≥ 10000 nM | 287 nM | 247 nM | 91.9 nM
CCN(C)S(=O)(=O)Nc1ccc(F)c(Oc2ccc3ncn(CCCC(=O)OC(C)(C)C)c(=O)c3c2)c1C#N [Example 1, tert-butyl 4-[6-[2-cyano-3-[[ethyl(methyl)sulfamoyl]amino]-6-fluoro-phenoxy]-4-oxo-quinazolin-3-yl]butanoate] | 2360 nM | 19.8 nM | 26.7 nM | 15.3 nM
CCN(C)S(=O)(=O)Nc1ccc(F)c(Oc2ccc3ncn(CCCNC(=O)OC(C)(C)C)c(=O)c3c2)c1C#N [Example 6, tert-butyl N-[3-[6-[2-cyano-3-[[ethyl(methyl)sulfamoyl]amino]-6-fluoro-phenoxy]-4-oxo-quinazolin-3-yl]propyl]carbamate] | ≥ 10000 nM | 41.6 nM | 19.4 nM | 6.36 nM
N#Cc1c(NS(=O)(=O)C2CCCC2)ccc(F)c1Oc1ccc2ncn(CCCc3ccccc3)c(=O)c2c1 [Example 11, N-[2-cyano-4-fluoro-3-[4-oxo-3-(3-phenylpropyl)quinazolin-6-yl]oxy-phenyl]cyclopentanesulfonamide] | 908 nM | 52.5 nM | 50.5 nM | 24.4 nM
N#Cc1c(Nc2ccc3ncn(CCCc4ccccc4)c(=O)c3c2)cccc1NS(=O)(=O)N1CC[C@@H](F)C1 [Example 44, (3R)—N-[2-cyano-3-[[4-oxo-3-(3-phenylpropyl)quinazolin-6-yl]amino]phenyl]-3-fluoro-pyrrolidine-1-sulfonamide] | 2070 nM | 18.2 nM | 25.6 nM | 15.1 nM
CC(C)(C)OC(=O)CCCn1cnc2ccc(Nc3cccc(NS(=O)(=O)N4CC[C@@H](F)C4)c3C#N)cc2c1=O [Example 35, tert-butyl 4-[6-[2-cyano-3-[[(3R)-3-fluoropyrrolidin-1-yl]sulfonylamino]anilino]-4-oxo-quinazolin-3-yl]butanoate] | 7220 nM | 12.9 nM | 20.9 nM | 7.92 nM
CC(=O)N(C)CCCn1cnc2ccc(Oc3c(F)ccc(NS(=O)(=O)N4CCCC4)c3C#N)cc2c1=O [Example 26, N-[3-[6-[2-cyano-6-fluoro-3-(pyrrolidin-1-ylsulfonylamino)phenoxy]-4-oxo-quinazolin-3-yl]propyl]-N-methyl-acetamide] | 4260 nM | 20.5 nM | 0.55 nM | 0.32 nM

The remaining lines, values ahead:

EC50 [1] | IC50 [2] | Kd (BRAF (V600E)) | Kd (BRAF (wt)) | Structure (SMILES)
1530 nM | 36.7 nM | 4.82 nM | 3.51 nM | CC(C)(C)OC(=O)N1CCN(CCn2cnc3ccc(Oc4c(F)ccc(NS(=O)(=O)N5CC[C@@H](F)C5)c4C#N)cc3c2=O)CC1 [Example 10, tert-butyl 4-[2-[6-[2-cyano-6-fluoro-3-[[(3R)-3-fluoropyrrolidin-1-yl]sulfonylamino]phenoxy]-4-oxo-quinazolin-3-yl]ethyl]piperazine-1-carboxylate]
1460 nM | 158 nM | 57.5 nM | 45.4 nM | CC(C)(C)OC(=O)N1CCC(CCn2cnc3ccc(Oc4c(F)ccc(NS(=O)(=O)N5CCCCC5)c4C#N)cc3c2=O)CC1 [Example 18, tert-butyl 4-[2-[6-[2-cyano-6-fluoro-3-(1-piperidylsulfonylamino)phenoxy]-4-oxo-quinazolin-3-yl]ethyl]piperidine-1-carboxylate]
4850 nM | 254 nM | 114 nM | 54.3 nM | CC(C)(C)OC(=O)N1CCC(CCn2cnc3ccc(Oc4c(F)ccc(NS(=O)(=O)C5CCCCC5)c4C#N)cc3c2=O)CC1 [Example 14, tert-butyl 4-[2-[6-[2-cyano-3-(cyclohexylsulfonylamino)-6-fluoro-phenoxy]-4-oxo-quinazolin-3-yl]ethyl]piperidine-1-carboxylate]
≥ 10000 nM | 1510 nM | 9.29 nM | 6.19 nM | CC(C)(C)OC(=O)N1CCC(NC(=O)CCCn2cnc3ccc(Nc4cccc(NS(=O)(=O)N5CC[C@@H](F)C5)c4C#N)cc3c2=O)CC1 [Example 41]
624 nM | 28.9 nM | 0.97 nM | 0.69 nM | CC(C)(C)OC(=O)NCCCn1cnc2ccc(Oc3c(F)ccc(NS(=O)(=O)N4CCC4)c3C#N)cc2c1=O [Example 9, tert-butyl N-[3-[6-[3-(azetidin-1-ylsulfonylamino)-2-cyano-6-fluoro-phenoxy]-4-oxo-quinazolin-3-yl]propyl]carbamate]
4040 nM | 78.9 nM | 93.5 nM | 50.4 nM | CCC(C)S(=O)(=O)Nc1ccc(F)c(Oc2ccc3ncn(CCC4CCN(C(=O)OC(C)(C)C)CC4)c(=O)c3c2)c1C#N (stereo not drawn) [Example 15, tert-butyl 4-[2-[6-[2-cyano-6-fluoro-3-(sec-butylsulfonylamino)phenoxy]-4-oxo-quinazolin-3-yl]ethyl]piperidine-1-carboxylate]
2250 nM | 30.3 nM | 21.4 nM | 18.9 nM | CC(C)(C)OC(=O)N1CCC(CCn2cnc3ccc(Oc4c(F)ccc(NS(=O)(=O)N5CC[C@@H](F)C5)c4C#N)cc3c2=O)CC1 [Example 2, tert-butyl 4-[2-[6-[2-cyano-6-fluoro-3-[[(3R)-3-fluoropyrrolidin-1-yl]sulfonylamino]phenoxy]-4-oxo-quinazolin-3-yl]ethyl]piperidine-1-carboxylate]
1190 nM | 18.1 nM | 2.82 nM | 1.35 nM | CC(C)(C)OC(=O)NCCCn1cnc2ccc(Oc3c(F)ccc(NS(=O)(=O)N4CCCC4)c3C#N)cc2c1=O [Example 5, tert-butyl N-[3-[6-[2-cyano-6-fluoro-3-(pyrrolidin-1-ylsulfonylamino)phenoxy]-4-oxo-quinazolin-3-yl]propyl]carbamate]
240 nM | 11 nM | 2.16 nM | 1.61 nM | CC(C)(C)OC(=O)N1CCN(CCn2cnc3ccc(Oc4c(F)ccc(NS(=O)(=O)N5CCCC5)c4C#N)cc3c2=O)CC1 [Example 16, tert-butyl 4-[2-[6-[2-cyano-6-fluoro-3-(pyrrolidin-1-ylsulfonylamino)phenoxy]-4-oxo-quinazolin-3-yl]ethyl]piperazine-1-carboxylate]
